Several values for one entry are separate records, joined by “and”; a condition that tells them apart may be missing. Equal values may be shown once. Toxic doses and inconclusive results are not listed. Square brackets hold non-standard residues; d marks the D form. Peptide text beside a SMILES is read from it. Ac5c = NC1(C(=O)O)CCCC1
Test system: BDF1 mice, L1210 leukemia sc, survival T/C
Assay: NCI In Vivo Anticancer Drug Screen. Data for tumor model L1210 Leukemia (subcutaneous) in B6D2F1 (BDF1) mice
Conditions: endpoint: median survival time, higher = longer survival
Method in brief: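 Mice carrying transplanted tumors received test compounds, and survival or tumor size was measured. Values are the treated-group measurement (T) divided by that of the vehicle-treated control group (C).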

[1] = dose: 500.0 mg/kg/injection, schedule: Q01DX Z (sc), vehicle: methylcellulose (MC)
[2] = dose: 8.0 mg/kg/injection, schedule: Q01DX009 (ip), vehicle: water

## C[C@]12C=CC(=O)C=C1CC[C@@H]1[C@@H]2C(=O)C[C@@]2(C)[C@H]1CC[C@]2(O)C(=O)CO
dose: 25.0 mg/kg/injection, schedule: Q01DX009 (sc), vehicle: water
  T/C: 100 % of control
dose: 50.0 mg/kg/injection, schedule: Q01DX009 (sc), vehicle: water
  T/C: 100 % of control
dose: 100.0 mg/kg/injection, schedule: Q01DX009 (sc), vehicle: water
  T/C: 100 % of control
dose: 108.0 mg/kg/injection, schedule: Q01DX Z (sc), vehicle: methylcellulose (MC)
  T/C: 109 % of control
dose: 140.0 mg/kg/injection, schedule: Q01DX Z (oral), vehicle: water
  T/C: 111 % of control
dose: 140.0 mg/kg/injection, schedule: Q02DX Z (sc), vehicle: water
  T/C: 122 % of control
dose: 180.0 mg/kg/injection, schedule: Q01DX009 (sc), vehicle: water
  T/C: 116 % of control
dose: 180.0 mg/kg/injection, schedule: Q01DX Z (sc), vehicle: methylcellulose (MC)
  T/C: 100 % of control
dose: 180.0 mg/kg/injection, schedule: Q02DX009 (sc), vehicle: steriod suspending solution
  T/C: 107 % of control
dose: 180.0 mg/kg/injection, schedule: Q02DX Z (sc), vehicle: steriod suspending solution
  T/C: 111 % of control
dose: 200.0 mg/kg/injection, schedule: Q01DX009 (sc), vehicle: water
  T/C: 100 % of control
dose: 233.0 mg/kg/injection, schedule: Q01DX Z (oral), vehicle: water
  T/C: 111 % of control
dose: 300.0 mg/kg/injection, schedule: Q01DX Z (sc), vehicle: methylcellulose (MC)
  T/C: 109 % of control and 112 % of control
dose: 300.0 mg/kg/injection, schedule: Q02DX009 (sc), vehicle: steriod suspending solution
  T/C: 104 % of control
dose: 300.0 mg/kg/injection, schedule: Q02DX Z (sc), vehicle: steriod suspending solution
  T/C: 105 % of control
dose: 389.0 mg/kg/injection, schedule: Q01DX Z (oral), vehicle: water
  T/C: 116 % of control
dose: 389.0 mg/kg/injection, schedule: Q02DX Z (sc), vehicle: water
  T/C: 155 % of control
dose: 400.0 mg/kg/injection, schedule: Q01DX009 (sc), vehicle: water
  T/C: 88 % of control and 100 % of control
[1]
  T/C: 104 % of control and 112 % of control
dose: 500.0 mg/kg/injection, schedule: Q02DX009 (sc), vehicle: steriod suspending solution
  T/C: 101 % of control
dose: 500.0 mg/kg/injection, schedule: Q02DX Z (sc), vehicle: steriod suspending solution
  T/C: 100 % of control
dose: 648.0 mg/kg/injection, schedule: Q01DX Z (oral), vehicle: water
  T/C: 122 % of control
dose: 800.0 mg/kg/injection, schedule: Q01DX009 (sc), vehicle: water
  T/C: 94 % of control and 100 % of control
dose: 833.0 mg/kg/injection, schedule: Q01DX Z (sc), vehicle: methylcellulose (MC)
  T/C: 100 % of control and 112 % of control
dose: 833.0 mg/kg/injection, schedule: Q02DX009 (sc), vehicle: steriod suspending solution
  T/C: 103 % of control
dose: 833.0 mg/kg/injection, schedule: Q02DX Z (sc), vehicle: steriod suspending solution
  T/C: 105 % of control
dose: 1080.0 mg/kg/injection, schedule: Q01DX Z (oral), vehicle: water
  T/C: 111 % of control
dose: 1080.0 mg/kg/injection, schedule: Q02DX Z (sc), vehicle: water
  T/C: 155 % of control
dose: 1388.0 mg/kg/injection, schedule: Q02DX009 (sc), vehicle: steriod suspending solution
  T/C: 101 % of control
dose: 1388.0 mg/kg/injection, schedule: Q02DX Z (sc), vehicle: steriod suspending solution
  T/C: 100 % of control

## C[C@@H](CN1CC(=O)NC(=O)C1)N1CC(=O)NC(=O)C1
[2]
  T/C: 103 % of control
dose: 16.0 mg/kg/injection, schedule: Q01DX009 (ip), vehicle: water
  T/C: 105 % of control and 115 % of control
dose: 32.0 mg/kg/injection, schedule: Q01DX009 (ip), vehicle: water
  T/C: 114 % of control
dose: 128.0 mg/kg/injection, schedule: Q01DX009 (ip), vehicle: water
  T/C: 150 % of control
dose: 512.0 mg/kg/injection, schedule: Q01DX009 (ip), vehicle: water
  T/C: 121 % of control

## Cc1c(O)ccc(=O)n1O
dose: 65.0 mg/kg/injection, schedule: Q01DX Z (sc), vehicle: carboxymethylcellulose (CMC)
  T/C: 100 % of control
dose: 108.0 mg/kg/injection, schedule: Q01DX Z (sc), vehicle: carboxymethylcellulose (CMC)
  T/C: 100 % of control
dose: 180.0 mg/kg/injection, schedule: Q01DX Z (sc), vehicle: carboxymethylcellulose (CMC)
  T/C: 100 % of control
dose: 300.0 mg/kg/injection, schedule: Q01DX Z (sc), vehicle: carboxymethylcellulose (CMC)
  T/C: 100 % of control
dose: 500.0 mg/kg/injection, schedule: Q01DX Z (sc), vehicle: carboxymethylcellulose (CMC)
  T/C: 100 % of control

## Cn1cnc([N+](=O)[O-])c1Sc1ncnc2nc[nH]c12
dose: 3.0 mg/kg/injection, schedule: Q01DX Z (oral), vehicle: methylcellulose (MC)
  T/C: 100 % of control
dose: 5.0 mg/kg/injection, schedule: Q01DX Z (sc), vehicle: methylcellulose (MC)
  T/C: 100 % of control
dose: 8.4 mg/kg/injection, schedule: Q01DX Z (sc), vehicle: methylcellulose (MC)
  T/C: 100 % of control
dose: 14.0 mg/kg/injection, schedule: Q01DX Z (sc), vehicle: methylcellulose (MC)
  T/C: 100 % of control
dose: 23.0 mg/kg/injection, schedule: Q01DX Z (oral), vehicle: methylcellulose (MC)
  T/C: 100 % of control
dose: 28.0 mg/kg/injection, schedule: Q01DX Z (sc), vehicle: methylcellulose (MC)
  T/C: 110 % of control
dose: 39.0 mg/kg/injection, schedule: Q01DX Z (oral), vehicle: methylcellulose (MC)
  T/C: 100 % of control
dose: 39.0 mg/kg/injection, schedule: Q01DX Z (sc), vehicle: methylcellulose (MC)
  T/C: 100 % of control
dose: 47.0 mg/kg/injection, schedule: Q01DX Z (sc), vehicle: methylcellulose (MC)
  T/C: 115 % of control
dose: 65.0 mg/kg/injection, schedule: Q01DX Z (oral), vehicle: methylcellulose (MC)
  T/C: 100 % of control
dose: 78.0 mg/kg/injection, schedule: Q01DX Z (sc), vehicle: methylcellulose (MC)
  T/C: 120 % of control
dose: 360.0 mg/kg/injection, schedule: Q01DX Z (sc), vehicle: methylcellulose (MC)
  T/C: 110 % of control
dose: 500.0 mg/kg/injection, schedule: Q01DX Z (oral), vehicle: methylcellulose (MC)
  T/C: 155 % of control
[1]
  T/C: 122 % of control
dose: 600.0 mg/kg/injection, schedule: Q01DX Z (sc), vehicle: methylcellulose (MC)
  T/C: 105 % of control

## NCC(=O)NC1(C(=O)O)CCCC1 (H-Gly-[Ac5c]-OH)
dose: 55.0 mg/kg/injection, schedule: Q01DX Z (sc), vehicle: water
  T/C: 105 % of control
dose: 91.0 mg/kg/injection, schedule: Q01DX Z (sc), vehicle: water
  T/C: 105 % of control
dose: 152.0 mg/kg/injection, schedule: Q01DX Z (sc), vehicle: water
  T/C: 105 % of control
dose: 253.0 mg/kg/injection, schedule: Q01DX Z (sc), vehicle: water
  T/C: 157 % of control

## CC[n+]1ccc(Nc2ccc(NC(=O)c3ccc(Nc4cc[n+](CC)c5ccc(N)cc45)cc3)cc2)cc1
dose: 0.5 mg/kg/injection, schedule: Q01DX009 (sc), vehicle: water
  T/C: 100 % of control
dose: 0.5 mg/kg/injection, schedule: Q03HX024 (ip), vehicle: water
  T/C: 122 % of control
dose: 1.0 mg/kg/injection, schedule: Q01DX009 (ip), vehicle: water
  T/C: 172 % of control
dose: 1.0 mg/kg/injection, schedule: Q01DX009 (sc), vehicle: water
  T/C: 105 % of control
dose: 1.0 mg/kg/injection, schedule: Q03HX024 (ip), vehicle: water
  T/C: 177 % of control
dose: 1.0 mg/kg/injection, schedule: Q03HX024 (sc), vehicle: water
  T/C: 115 % of control
dose: 2.0 mg/kg/injection, schedule: Q01DX009 (ip), vehicle: water
  T/C: 172 % of control
dose: 2.0 mg/kg/injection, schedule: Q03HX008 (sc), vehicle: water
  T/C: 120 % of control
dose: 2.0 mg/kg/injection, schedule: Q03HX024 (ip), vehicle: water
  T/C: 200 % of control
dose: 2.0 mg/kg/injection, schedule: Q03HX024 (sc), vehicle: water
  T/C: 160 % of control
dose: 2.0 mg/kg/injection, schedule: Q04DX003 (sc), vehicle: water
  T/C: 100 % of control
dose: 4.0 mg/kg/injection, schedule: Q01DX001 (sc), vehicle: water
  T/C: 110 % of control
dose: 4.0 mg/kg/injection, schedule: Q01DX009 (ip), vehicle: water
  T/C: 122 % of control
dose: 4.0 mg/kg/injection, schedule: Q01DX009 (sc), vehicle: water
  T/C: 210 % of control
dose: 4.0 mg/kg/injection, schedule: Q03HX024 (sc), vehicle: water
  T/C: 190 % of control
dose: 4.0 mg/kg/injection, schedule: Q04DX003 (sc), vehicle: water
  T/C: 115 % of control
dose: 8.0 mg/kg/injection, schedule: Q01DX001 (sc), vehicle: water
  T/C: 110 % of control
[2]
  T/C: 111 % of control
dose: 8.0 mg/kg/injection, schedule: Q01DX009 (sc), vehicle: water
  T/C: 170 % of control
dose: 8.0 mg/kg/injection, schedule: Q03HX008 (sc), vehicle: water
  T/C: 185 % of control
dose: 8.0 mg/kg/injection, schedule: Q03HX024 (ip), vehicle: water
  T/C: 111 % of control
dose: 16.0 mg/kg/injection, schedule: Q04DX003 (sc), vehicle: water
  T/C: 165 % of control

From PubChem BioAssay AID250 (DTP/NCI, 2004)
